This is an account of results in US11072616B2, “Cyclic peptides targeting alpha-4-beta-7 integrin” (Zealand Pharma A/S, priority 2015, dated 2021).

Like-named read-outs stand apart in the source and are kept apart here.

This assay has as its target T1, integrin α4β7 (Homo sapiens, UniProt P13612+P26010).
T1 sequence (P13612 34-977 limits assumed): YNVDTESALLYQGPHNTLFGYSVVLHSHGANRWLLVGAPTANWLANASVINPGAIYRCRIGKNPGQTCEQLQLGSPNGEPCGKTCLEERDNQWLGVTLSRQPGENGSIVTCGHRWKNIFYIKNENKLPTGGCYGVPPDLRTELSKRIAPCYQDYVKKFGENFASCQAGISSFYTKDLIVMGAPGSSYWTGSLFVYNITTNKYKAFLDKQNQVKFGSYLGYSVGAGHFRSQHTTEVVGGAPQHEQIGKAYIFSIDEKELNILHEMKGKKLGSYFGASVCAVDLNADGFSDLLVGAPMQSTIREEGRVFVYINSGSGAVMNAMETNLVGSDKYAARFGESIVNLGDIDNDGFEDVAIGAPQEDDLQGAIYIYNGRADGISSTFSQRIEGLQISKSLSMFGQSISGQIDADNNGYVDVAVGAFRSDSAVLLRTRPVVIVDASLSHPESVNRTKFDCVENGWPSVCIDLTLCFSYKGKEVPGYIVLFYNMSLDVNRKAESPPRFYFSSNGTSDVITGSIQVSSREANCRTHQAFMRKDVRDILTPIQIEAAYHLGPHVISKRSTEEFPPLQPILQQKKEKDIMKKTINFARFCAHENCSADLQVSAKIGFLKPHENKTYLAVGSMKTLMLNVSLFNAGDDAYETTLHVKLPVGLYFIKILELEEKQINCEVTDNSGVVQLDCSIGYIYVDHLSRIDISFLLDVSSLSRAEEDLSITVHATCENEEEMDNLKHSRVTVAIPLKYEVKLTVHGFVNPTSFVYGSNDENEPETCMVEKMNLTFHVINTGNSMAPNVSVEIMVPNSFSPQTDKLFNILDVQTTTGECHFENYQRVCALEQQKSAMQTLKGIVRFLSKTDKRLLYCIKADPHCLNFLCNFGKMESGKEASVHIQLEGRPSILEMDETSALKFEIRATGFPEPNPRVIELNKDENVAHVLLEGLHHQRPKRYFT
T1 sequence (P26010 20-723 limits assumed): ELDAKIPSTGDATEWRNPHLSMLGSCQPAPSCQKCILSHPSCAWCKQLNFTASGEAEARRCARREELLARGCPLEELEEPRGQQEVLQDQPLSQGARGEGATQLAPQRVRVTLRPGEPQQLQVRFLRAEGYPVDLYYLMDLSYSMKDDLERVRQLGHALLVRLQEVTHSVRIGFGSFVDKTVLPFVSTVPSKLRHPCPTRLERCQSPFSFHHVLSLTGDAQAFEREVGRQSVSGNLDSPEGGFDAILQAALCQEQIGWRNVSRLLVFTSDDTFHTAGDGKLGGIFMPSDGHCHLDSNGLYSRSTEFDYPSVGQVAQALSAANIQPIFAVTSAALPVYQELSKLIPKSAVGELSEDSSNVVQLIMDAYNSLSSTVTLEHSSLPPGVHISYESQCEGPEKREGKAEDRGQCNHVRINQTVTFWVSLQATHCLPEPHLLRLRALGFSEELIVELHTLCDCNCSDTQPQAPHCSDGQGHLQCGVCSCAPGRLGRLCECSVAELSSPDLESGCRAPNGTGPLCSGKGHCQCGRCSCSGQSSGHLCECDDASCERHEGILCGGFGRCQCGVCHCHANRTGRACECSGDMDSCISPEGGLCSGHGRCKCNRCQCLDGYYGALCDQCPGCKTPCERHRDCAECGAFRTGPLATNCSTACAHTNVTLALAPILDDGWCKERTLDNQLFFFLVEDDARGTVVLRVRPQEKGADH
The assay is described as follows: Integrin α4β7—MAdCAM-1 competition assay (ELISA). It counts as binding. As to the method: Integrin α4β7—MAdCAM-1 Competition Assay
The plate was incubated at 4° C. overnight. […] The plate was then incubated for 1 hour at room temperature. The plate was washed three times with wash buffer (50 mM Tris, 100 mM NaCl, 1 mM MnCl2, 0.05% Tween). To each well, 50 μl of compound diluted in assay buffer was added by transfer from a compound serial dilution plate. […] The plate was incubated at room temperature with shaking for 2 hours to reach binding equilibrium. Then the plate was washed three times in wash buffer and 100 μl anti-human IgG Fc specific-horseradish peroxidase (HRP) (Abcam, Ab97225) diluted at 1:2000 in assay buffer was added to each well. The plate was incubated at room temperature for 1 hour under agitation. The plates were then washed three times and 100 μl of 1,3′,5,5′-tetramethylbenxidie (TMB) was then added to each well.

The mark [1] stands for this setting: ratio a4b1 ELISA IC50 / a4b7 ELISA IC50.

With `CCO[C@H](C)[C@@H]1NC(=O)[C@H](CC(=O)O)NC(=O)[C@H](CC(C)C)NC(=O)[C@H](Cc2ccccc2)NC(=O)[C@@H]2CCCN2[C@H](C(=O)NC(C)(C)C)[C@H](C)NC1=O` [Compound 41], the “Selectivity ELISA” value under setting [1] is 2.5.
Consider `COc1cccc(Cl)c1-c1ccc(C[C@@H]2NC(=O)[C@@H]3CCCN3[C@H](C(=O)NC(C)(C)C)[C@H](C)NC(=O)[C@H]([C@@H](C)O)NC(=O)[C@H](CC(=O)O)NC(=O)[C@H](CC(C)C)NC(=O)C[C@H](CCCCN)NC2=O)cc1` [Compound 269], for which the “Selectivity ELISA” value under setting [1] is given as 31.6.
Turning to `CC(C)C[C@@H]1NC(=O)[C@@H]2C[C@@H](O)CN2C(=O)[C@H](Cc2ccc(O)cc2)NC(=O)[C@@H]2CCCN2[C@H](C(=O)NC(C)(C)C)[C@H](C)NC(=O)[C@H]([C@@H](C)O)NC(=O)[C@H](CC(=O)O)NC1=O` [Compound 139], under setting [1], the “Selectivity ELISA” value was found to be 0.7.
Still for that read-out and setting: the same measure for `CC(C)C[C@@H]1NC(=O)c2ccc(-c3ccccc3N3CCNCC3)c(c2)CNC(=O)[C@@H]2CCCN2[C@H](C(=O)NC(C)(C)C)[C@H](C)NC(=O)[C@H]([C@@H](C)O)NC(=O)[C@H](CC(=O)O)NC1=O` [Compound 348]: 1.5; for `CC(C)C[C@@H]1NC(=O)[C@H](Cc2ccc3ccccc3c2)NC(=O)[C@@H]2CCCN2[C@H](C(=O)NC(C)(C)C)[C@H](C)NC(=O)[C@H]([C@@H](C)O)NC(=O)[C@H](CC(=O)O)NC1=O` [Compound 10]: 1.3.
Same read-out and setting: the same measure for `CC(C)C[C@@H]1NC(=O)[C@@H](CCCCN)NC(=O)[C@H](Cc2ccc(-c3ccccc3)cc2)NC(=O)[C@@H]2CCCN2[C@H](C(=O)NC(C)(C)C)[C@H](C)NC(=O)[C@H]([C@@H](C)O)NC(=O)[C@H](CC(=O)O)NC1=O` [Compound 110]: 21.3; for `CC(C)C[C@@H]1NC(=O)CN(C)C(=O)[C@H](Cc2cccc3ccccc23)NC(=O)[C@@H]2CCCN2[C@H](C(=O)NC(C)(C)C)[C@H](C)NC(=O)[C@H]([C@@H](C)O)NC(=O)[C@H](CC(=O)O)NC1=O` [Compound 117]: 8.7; for `CC(C)C[C@@H]1NC(=O)[C@H]2CCCCN2C(=O)[C@@H]2CCCN2[C@H](C(=O)NC(C)(C)C)[C@H](C)NC(=O)[C@H]([C@@H](C)O)NC(=O)[C@H](CC(=O)O)NC1=O` [Compound 51]: 3.3.
Still for that read-out and setting: the same measure for `C=CCOc1ccc(C[C@@H]2NC(=O)[C@@H]3CCCN3[C@H](C(=O)NC(C)(C)C)[C@H](C)NC(=O)[C@H]([C@@H](C)O)NC(=O)[C@H](CC(=O)O)NC(=O)[C@H](CC(C)C)NC(=O)[C@@H](CO)NC2=O)cc1` [Compound 167]: 13.6; for `COc1cccc(-c2ccccc2C[C@@H]2NC(=O)[C@@H]3CCCN3[C@H](C(=O)NC(C)(C)C)[C@H](C)NC(=O)[C@H]([C@@H](C)O)NC(=O)[C@H](CC(=O)O)NC(=O)[C@H](CC(C)C)NC(=O)[C@H]3CCCCN3C2=O)c1` [Compound 136]: 6.6; for `CC(C)C[C@@H]1NC(=O)[C@H](Cc2cccnc2)NC(=O)[C@@H]2C[C@@H](O)CN2[C@H](C(=O)NC(C)(C)C)[C@H](C)NC(=O)[C@H]([C@@H](C)O)NC(=O)[C@H](CC(=O)O)NC1=O` [Compound 44]: 2.3.
With `CC(C)C[C@@H]1NC(=O)C[C@H](CCCCN)NC(=O)C2(Cc3ccccc3C2)NC(=O)[C@@H]2CCCN2[C@H](C(=O)NC(C)(C)C)[C@H](C)NC(=O)[C@H]([C@@H](C)O)NC(=O)[C@H](CC(=O)O)NC1=O` [Compound 288], the “Selectivity ELISA” value under setting [1] turned out to be 12.2.
Same read-out and setting: the same measure for `CC[C@@H](C)[C@@H]1NC(=O)[C@H](CC(=O)O)NC(=O)[C@H](CC(C)C)NC(=O)C[C@H](CCCCN)NC(=O)[C@H](Cc2ccc(CN)cc2)NC(=O)[C@@H]2CCCN2[C@H](C(=O)NC(C)(C)C)[C@H](C)NC1=O` [Compound 285]: 6.2.
Take `CC(C)C[C@@H]1NC(=O)c2ccc(-c3ccc(N4CCN(C(=O)COCC(=O)N5CCN(c6ccc(-c7ccc8cc7CNC(=O)[C@@H]7CCCN7[C@H](C(=O)NC(C)(C)C)[C@H](C)NC(=O)[C@H]([C@@H](C)O)NC(=O)[C@H](CC(=O)O)NC(=O)[C@H](CC(C)C)NC8=O)cc6)CC5)CC4)cc3)c(c2)CNC(=O)[C@@H]2CCCN2[C@H](C(=O)NC(C)(C)C)[C@H](C)NC(=O)[C@H]([C@@H](C)O)NC(=O)[C@H](CC(=O)O)NC1=O` [Compound 390]: the “Selectivity ELISA” value came to 1.749.
In the case of `C[C@@H]1NC(=O)[C@H]([C@@H](C)O)NC(=O)[C@H](CC(=O)O)NC(=O)[C@H](CC(C)(C)C)NC(=O)c2ccc(-c3ccnc4ccccc34)c(c2)CNC(=O)[C@@H]2CCCN2[C@@H]1C(=O)NC(C)(C)C` [Compound 355], the “Selectivity ELISA” value under setting [1] came out at 1.4.
Same read-out and setting: the value for `CC[C@H](C)[C@@H]1NC(=O)[C@H](CC(=O)O)NC(=O)[C@H](CC(C)C)NC(=O)[C@@H](CCCCN)N(C)C(=O)[C@H](Cc2ccc(O)cc2)NC(=O)[C@@H]2CCCN2[C@H](C(=O)NC(C)(C)C)[C@H](C)NC1=O` [Compound 154] was 22.8; that for `Cc1cccc(C)c1-c1ccccc1C[C@@H]1NC(=O)[C@@H]2CCCN2[C@H](C(=O)NC(C)(C)C)[C@H](C)NC(=O)[C@H]([C@@H](C)O)NC(=O)[C@H](CC(=O)O)NC(=O)[C@H](CC(C)C)NC(=O)C[C@H](CCCCN)NC1=O` [Compound 272] was 58.1.
Same read-out and setting: the same measure for `CC(C)C[C@@H]1NC(=O)[C@H]2C[C@H](O)CN2C(=O)[C@H](Cc2ccc(CN)cc2)NC(=O)[C@@H]2CCCN2[C@H](C(=O)NC(C)(C)C)[C@H](C)NC(=O)[C@H]([C@@H](C)O)NC(=O)[C@H](CC(=O)O)NC1=O` [Compound 152]: 13.2.
Still for that read-out and setting: the value for `CC(C)C[C@@H]1NC(=O)[C@H]2C[C@H](O)CN2C(=O)[C@H](Cc2ccc(O)cc2)NC(=O)[C@@H]2CCCN2[C@H](C(=O)NC(C)(C)C)[C@H](C)NC(=O)[C@H]([C@@H](C)O)NC(=O)[C@H](CC(=O)O)NC1=O` [Compound 140] was 9.6; that for `CC(C)C[C@@H]1NC(=O)C[C@H](CCCCN)NC(=O)[C@H](Cc2ccccc2-c2ccc(N3CCNCC3)cc2)NC(=O)[C@@H]2CCCN2[C@H](C(=O)NC(C)(C)C)[C@H](C)NC(=O)[C@H]([C@@H](C)O)NC(=O)[C@H](CC(=O)O)NC1=O` [Compound 271] was 34.6.
For the molecule `COc1ccc(C[C@@H]2NC(=O)[C@@H]3CCCN3[C@H](C(=O)NC(C)(C)C)[C@H](C)NC(=O)[C@H]([C@@H](C)O)NC(=O)[C@H](CC(=O)O)NC(=O)[C@H](CC(C)C)NC(=O)[C@H]3CCCN3C2=O)cc1OC` [Compound 127], the “Selectivity ELISA” value under setting [1] is reported as 7.8.
Same read-out and setting: the same measure for `CC(C)C[C@@H]1NC(=O)C[C@H](CCCCN)NC(=O)[C@](C)(Cc2ccccc2)NC(=O)[C@@H]2CCCN2[C@H](C(=O)NC(C)(C)C)[C@H](C)NC(=O)[C@H]([C@@H](C)O)NC(=O)[C@H](CC(=O)O)NC1=O` [Compound 263]: 23.1; for `C=CCOc1ccc(C[C@@H]2NC(=O)[C@@H]3CCCN3[C@H](C(=O)NC(C)(C)C)[C@H](C)NC(=O)[C@H]([C@@H](C)O)NC(=O)[C@H](CC(=O)O)NC(=O)[C@H](CC(C)C)NC(=O)[C@@H](C(C)C)NC2=O)cc1` [Compound 166]: 7.7.
